The record followed here is US9980943B2, “Methods of treating muscular dystrophy” (BOARD OF REGENTS OF THE NEVADA SYSTEM OF HIGHER EDUCATION, …, priority 2013, dated 2018).

What all share (assay type): cell-based, mouse
The test system of assay [1] is α7 integrin (LacZ reporter in α7+/LacZ myotubes). The assay is described as follows: Myotube α7 integrin FDG assay (Burkin assay in myotubes, 96-well). The conditions noted are these: for Burkin Assay in Myotubes, value relative to DMSO: SU9516 analogs, 96-well, N=3-6.
Assay [2] concerns β-galactosidase in CMV-LacZ C2C12 myotubes. The assay is described as follows: CMV-LacZ secondary screen in C2C12 myotubes (β-Gal stabilizing assay). Particulars: for CMV-LACZ in Myotubes, signal relative to DMSO: C2C12 CMV-LacZ myotubes, fold relative to DMSO; for CMV-LACZ in Myotubes, value relative to DMSO: SU9516 analogs, C2C12 CMV-LacZ, N=2. A digest of the protocol: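 A secondary screen identifies compounds that stabilize β-gal independently of the native promoter, using CMV-LacZ C2C12 cells. Curves span 0.5–40 μM at six levels, in duplicate.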

Assay [3] deals with β-galactosidase in CMV-LacZ C2C12 myoblasts. The assay can be described thus: CMV-LacZ secondary screen in C2C12 myoblasts (β-Gal stabilizing assay). The conditions noted are these: for CMV-LACZ in Myoblasts (β-galactosidase activity relative to DMSO): CMV-LacZ C2C12 myoblasts; for CMV-LACZ in Myoblasts, value relative to DMSO: SU9516 analogs, C2C12 CMV-LacZ, N=2. A digest of the protocol:
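C2C12 myoblasts stably carrying a linearized CMV-driven LacZ construct, clone chosen by β-gal level in the myoblast FDG assay. Compounds tested in 96-well dose-response at 0.5, 1, 5, 10, 20 and 40 μM, N=2 replicates per point, to detect β-gal stabilization.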

For assay [4], the system named is α7 integrin (LacZ reporter in α7βgal+/− myoblasts). The assay is described as follows: Myoblast α7+/LacZ integrin FDG assay (Burkin assay in myoblasts, 96-well). Particulars: 96-well; for Burkin Assay in Myoblasts, signal relative to DMSO: α7+/LacZ myoblasts; for Burkin Assay in Myoblasts, value relative to DMSO: SU9516 analogs, N=3-6.

As for `CC(C)(C)c1ccc(C(=O)OCC(=O)Nc2sc3c(c2C#N)CCC3)cc1` [MLS000392555-01], the “Burkin Assay in Myotubes, α7 integrin LacZ reporter signal relative to DMSO” value in assay [1] (0.5 uM) stood at 0.9647; in assay [1] (1 uM), 0.9664; in assay [1] (5 uM), 1.105; in assay [1] (10 uM), 0.9741; in assay [1] (20 uM), 0.935; in assay [1] (40 uM), 0.9301. Besides, the “CMV-LACZ in Myotubes, signal relative to DMSO” value is listed as 1.0257 in assay [2] (0.5 uM); 0.9676 in assay [2] (1 uM); 1.0094 in assay [2] (5 uM); 0.8568 in assay [2] (10 uM); 1.1537 in assay [2] (20 uM); 0.9326 in assay [2] (40 uM). The “CMV-LACZ in Myoblasts (β-galactosidase activity relative to DMSO)” value is 0.8954 in assay [3] (0.5 uM); 0.7638 in assay [3] (1 uM); 0.9342 in assay [3] (5 uM); 0.9799 in assay [3] (10 uM); 0.9559 in assay [3] (20 uM); 1.2007 in assay [3] (40 uM). The “Burkin Assay in Myoblasts, signal relative to DMSO” value came out at 1.2055 in assay [4] (0.5 uM); 1.101 in assay [4] (1 uM); 1.3 in assay [4] (5 uM); 0.9734 in assay [4] (10 uM); 1.314 in assay [4] (20 uM); 1.226 in assay [4] (40 uM).
As for `CCc1c(C)sc(NC(=O)c2ccco2)c1C#N` [MLS001240181-01], the “Burkin Assay in Myotubes, α7 integrin LacZ reporter signal relative to DMSO” value stood at 1.174 in assay [1] (0.5 uM); 1.214 in assay [1] (1 uM); 1.643 in assay [1] (5 uM); 0.9683 in assay [1] (10 uM); 0.8871 in assay [1] (20 uM); 0.7905 in assay [1] (40 uM). For the same compound, the “CMV-LACZ in Myotubes, signal relative to DMSO” value was 0.9519 in assay [2] (0.5 uM); 1.0511 in assay [2] (1 uM); 1.0895 in assay [2] (5 uM); 0.9955 in assay [2] (10 uM); 1.0976 in assay [2] (20 uM); 1.1376 in assay [2] (40 uM). The “CMV-LACZ in Myoblasts (β-galactosidase activity relative to DMSO)” value in assay [3] (0.5 uM) was 0.9550; in assay [3] (1 uM), 1.0441; in assay [3] (5 uM) it was 0.8408; in assay [3] (10 uM), 1.1645; in assay [3] (20 uM), 1.0367; in assay [3] (40 uM) it was 0.8907. Further, the “Burkin Assay in Myoblasts, signal relative to DMSO” value in assay [4] (0.5 uM) was 1.082; in assay [4] (1 uM), 1.081; in assay [4] (5 uM), 1.4585; in assay [4] (10 uM) it was 1.074; in assay [4] (20 uM), 1.153; in assay [4] (40 uM), 1.198.
Consider `O=C1Nc2ccccc2/C1=C\c1cccn1-c1ccc(OC(F)(F)F)cc1` [MLS000546982-01], for which the “Burkin Assay in Myotubes, value relative to DMSO” value in assay [1] (0.5 uM) was 1.048; in assay [1] (1 uM) it was 1.038; in assay [1] (5 uM), 1.145; in assay [1] (10 uM) it was 0.9962; in assay [1] (20 uM), 0.8556; in assay [1] (40 uM), 0.7111. Besides, the “CMV-LACZ in Myotubes, value relative to DMSO” value in assay [2] (0.5 uM) is 1.0438; in assay [2] (1 uM), 0.8467; in assay [2] (5 uM), 1.0159; in assay [2] (10 uM), 1.1265; in assay [2] (20 uM), 1.0160; in assay [2] (40 uM), 1.3290. Besides, the “CMV-LACZ in Myoblasts, value relative to DMSO” value in assay [3] (0.5 uM) is recorded as 1.0877; in assay [3] (1 uM), 1.2640; in assay [3] (5 uM) it was 0.9273; in assay [3] (10 uM) it was 1.0785; in assay [3] (20 uM) it was 0.9512; in assay [3] (40 uM), 1.3937. Further, the “Burkin Assay in Myoblasts, value relative to DMSO” value in assay [4] (0.5 uM) is 0.8799; in assay [4] (1 uM), 1.155; in assay [4] (5 uM) it was 1.272; in assay [4] (10 uM), 1.078; in assay [4] (20 uM), 1.053; in assay [4] (40 uM) it was 0.8883.
`Cn1c(-c2ccccc2)cc2ccccc21` [MLS001215074-01]: the “Burkin Assay in Myotubes, α7 integrin LacZ reporter signal relative to DMSO” value worked out at 0.7886 in assay [1] (0.5 uM); 0.8307 in assay [1] (1 uM); 1.05 in assay [1] (5 uM); 1.132 in assay [1] (10 uM); 0.7505 in assay [1] (20 uM); 0.8488 in assay [1] (40 uM). Further, the “CMV-LACZ in Myotubes, signal relative to DMSO” value in assay [2] (0.5 uM) is reported as 0.8752; in assay [2] (1 uM) it was 0.9238; in assay [2] (5 uM), 0.8364; in assay [2] (10 uM), 0.8583; in assay [2] (20 uM), 0.8700; in assay [2] (40 uM), 0.9930. The “CMV-LACZ in Myoblasts (β-galactosidase activity relative to DMSO)” value worked out at 0.7877 in assay [3] (0.5 uM); 0.7800 in assay [3] (1 uM); 1.1754 in assay [3] (5 uM); 1.0294 in assay [3] (10 uM); 1.1277 in assay [3] (20 uM); 1.1432 in assay [3] (40 uM). Besides, the “Burkin Assay in Myoblasts, signal relative to DMSO” value in assay [4] (0.5 uM) came to 1.023; in assay [4] (1 uM), 0.9004; in assay [4] (5 uM), 0.9431; in assay [4] (10 uM), 0.9738; in assay [4] (20 uM) it was 0.7339; in assay [4] (40 uM), 0.5974.
